In patent US20200368249A1 (priority 2017, published 2020):
Where “and” joins values, the source holds several entries; their conditions need not be identical. Equal values may be shown once.

Tests used:
Mtb-lux = assay type: cell-based, M. tuberculosis CDC1551
Mab 390S-lux = assay type: cell-based, M. abscessus 390S
[1] = test system: J774A.1 macrophage cell line; assay: cytotoxicity assay (resazurin); assay type: cell-based; conditions: J774 macrophages, 24 h
Protocol: Cytotoxicity was assessed on J774A.1 (ATCC® TIB67™) macrophage cell line. Macrophages were cultured in Dulbecco's Modified Eagle Medium (DMEM, GIBCO) supplemented with 10% heat inactivated fetal calf serum (Atlanta Biologicals), 1 mM sodium pyruvate (CellGro), 2 mM L-glutamine (CORNING) and 1% PenStrep (100 U/mL Penicillin, […] Streptomycin, GIBCO). Macrophages were seeded in a 384-well black transparent bottom plate (Corning) at 2.5×10^4 cells/well. After macrophages were allowed to adhere for 4-6 h, a two-fold dilution series of the compounds (200-0.006 μM) and controls (2% Triton X and 0.5% DMSO) were added to the wells. The plate was incubated for 24 h and then 1/10th volume of resazurin dye was added. Fluorescence was measured following 4 h incubation with the dye at an excitation of 560 nm and emission at 590 nm with cell viability indicated by conversion of resazurin to fluorescent product resofurin. Viability is determined as percent growth calculated relative to the DMSO control.

Mtb CDC1551 = assay: time-kill kinetic assay, Mtb; assay type: cell-based, M. tuberculosis; conditions: for mode of action against Mtb: actively replicating Mtb
Protocol: To examine whether bacterial killing is concentration and/or time-dependent, a time-kill kinetic study was carried out with 8, 10, 11, 14, and 15. For Mtb, CDC1551 cultures diluted to an OD of 0.01 in 7H9 were added to a solid-white 384-well plate containing compounds at final concentrations of 0, 1×, 4× and 8× MIC in a total volume of 30 μl. DMSO control was also included. The plate was incubated for 6 days for Mtb. At every time point-0, 24, 48 and 72 h post-inoculation, an aliquot was taken, serially diluted and 50 μl plated onto 7H10 quad-plates supplemented with OADC. Colonies were counted after 3-4 weeks of incubation at 37° C. and CFU/ml was calculated. […] The plate was incubated for 3 days and colonies were counted after 5 days of incubation following plating. A 1-2 log10 decrease in CFU/ml is considered bactericidal. Luminescence was also read at every time point before taking an aliquot for serial dilution.

MtbTopo1 = MtbTopo1 (Mycobacterium tuberculosis, UniProt P9WG49); assay: topoisomerase 1A relaxation assay, MtbTopo1; assay type: biochemical, M. tuberculosis
From the text: (§1) In FIGS. 7A and 7B, R indicates relaxed circular DNA; PR indicates partially relaxed DNA; and SC indicates supercoiled DNA.

[2] = reductive demetallation by glutathione; assay type: physicochemical
tolerability of mice = assay type: in vivo; conditions: 400 mg/kg, preliminary work
EcTopo1 = EcTopo1 (Escherichia coli, UniProt P06612)
From the text: as §1

E. coli gyrase = E. coli gyrase (Escherichia coli, UniProt P0AES4+P0AES6)
Protocol: (§2) In FIG. 8A-FIG. 8D, the IC50 was determined as the drug concentration which inhibited 50% of the supercoiling activity.

M. tuberculosis gyrase = M. tuberculosis gyrase (Mycobacterium tuberculosis, UniProt P9WG45+P9WG47)
Protocol: as §2

Mtb = conditions: cited from earlier work
Mab = conditions: even at 32 and 64-fold MIC; cited from earlier work

E. coli gyrase, sequence (P0AES4 whole entry, one chain of several): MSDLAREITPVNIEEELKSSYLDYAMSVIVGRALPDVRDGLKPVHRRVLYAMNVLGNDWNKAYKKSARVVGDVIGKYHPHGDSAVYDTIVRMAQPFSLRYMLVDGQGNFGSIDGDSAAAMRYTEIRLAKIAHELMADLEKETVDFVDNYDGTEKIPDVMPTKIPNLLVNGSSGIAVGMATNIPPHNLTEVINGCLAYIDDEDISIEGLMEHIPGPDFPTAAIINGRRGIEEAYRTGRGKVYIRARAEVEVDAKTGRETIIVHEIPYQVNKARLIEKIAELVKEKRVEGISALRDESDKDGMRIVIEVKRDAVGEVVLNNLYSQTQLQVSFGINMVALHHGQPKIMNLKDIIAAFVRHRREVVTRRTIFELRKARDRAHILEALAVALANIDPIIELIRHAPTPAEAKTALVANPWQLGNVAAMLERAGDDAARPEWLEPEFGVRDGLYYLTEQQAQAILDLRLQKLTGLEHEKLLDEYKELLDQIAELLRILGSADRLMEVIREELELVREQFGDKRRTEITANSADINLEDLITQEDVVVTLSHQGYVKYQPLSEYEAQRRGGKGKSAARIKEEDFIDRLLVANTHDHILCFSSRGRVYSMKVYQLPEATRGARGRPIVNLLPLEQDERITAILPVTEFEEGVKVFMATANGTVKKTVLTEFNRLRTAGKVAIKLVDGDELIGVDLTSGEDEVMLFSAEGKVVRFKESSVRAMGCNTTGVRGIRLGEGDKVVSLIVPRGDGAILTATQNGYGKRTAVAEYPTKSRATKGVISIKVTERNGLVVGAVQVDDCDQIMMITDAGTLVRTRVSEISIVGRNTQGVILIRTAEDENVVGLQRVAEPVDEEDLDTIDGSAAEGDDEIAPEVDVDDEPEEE
EcTopo1, sequence (P06612 whole entry): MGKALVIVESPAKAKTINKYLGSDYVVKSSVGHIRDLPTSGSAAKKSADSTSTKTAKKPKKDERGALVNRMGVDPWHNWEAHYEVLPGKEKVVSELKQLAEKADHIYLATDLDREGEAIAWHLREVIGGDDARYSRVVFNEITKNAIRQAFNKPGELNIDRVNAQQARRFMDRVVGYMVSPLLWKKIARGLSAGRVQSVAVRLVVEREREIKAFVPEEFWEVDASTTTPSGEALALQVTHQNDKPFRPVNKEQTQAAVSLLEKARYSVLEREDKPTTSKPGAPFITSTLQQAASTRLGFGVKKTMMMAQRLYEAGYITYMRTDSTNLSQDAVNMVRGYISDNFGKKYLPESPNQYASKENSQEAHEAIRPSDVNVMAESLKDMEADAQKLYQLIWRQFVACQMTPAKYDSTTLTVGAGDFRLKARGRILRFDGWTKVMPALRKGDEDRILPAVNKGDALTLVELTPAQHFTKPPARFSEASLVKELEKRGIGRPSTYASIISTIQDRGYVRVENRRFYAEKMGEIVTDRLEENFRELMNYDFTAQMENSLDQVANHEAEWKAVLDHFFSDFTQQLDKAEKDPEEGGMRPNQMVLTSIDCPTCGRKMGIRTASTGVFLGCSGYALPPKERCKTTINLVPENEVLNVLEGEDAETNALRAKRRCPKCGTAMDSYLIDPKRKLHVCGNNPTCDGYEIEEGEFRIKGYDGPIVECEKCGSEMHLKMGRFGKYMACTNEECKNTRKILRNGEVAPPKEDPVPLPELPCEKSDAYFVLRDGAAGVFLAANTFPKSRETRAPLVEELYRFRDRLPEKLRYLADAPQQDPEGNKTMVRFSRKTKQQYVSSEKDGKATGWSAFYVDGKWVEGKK
M. tuberculosis gyrase, sequence (P9WG45 whole entry, looked up): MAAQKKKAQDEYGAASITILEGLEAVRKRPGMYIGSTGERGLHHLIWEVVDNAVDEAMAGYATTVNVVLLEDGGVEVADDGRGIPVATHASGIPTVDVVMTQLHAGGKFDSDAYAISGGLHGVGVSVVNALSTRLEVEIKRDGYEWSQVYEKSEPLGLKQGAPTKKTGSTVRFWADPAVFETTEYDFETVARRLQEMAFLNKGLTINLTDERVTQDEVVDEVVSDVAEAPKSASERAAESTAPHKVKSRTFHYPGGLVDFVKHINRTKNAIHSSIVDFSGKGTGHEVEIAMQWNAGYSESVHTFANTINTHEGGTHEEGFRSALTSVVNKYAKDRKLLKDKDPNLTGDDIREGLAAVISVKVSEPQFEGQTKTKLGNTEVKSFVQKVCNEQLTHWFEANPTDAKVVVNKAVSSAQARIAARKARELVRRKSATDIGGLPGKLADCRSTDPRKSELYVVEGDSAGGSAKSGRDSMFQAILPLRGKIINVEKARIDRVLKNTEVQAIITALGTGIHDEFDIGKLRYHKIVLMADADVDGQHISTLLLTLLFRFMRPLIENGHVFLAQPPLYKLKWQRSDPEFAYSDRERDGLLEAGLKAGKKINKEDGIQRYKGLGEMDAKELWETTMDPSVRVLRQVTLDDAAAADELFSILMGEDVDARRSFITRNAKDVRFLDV
M. tuberculosis gyrase, sequence (P9WG47 whole entry, looked up): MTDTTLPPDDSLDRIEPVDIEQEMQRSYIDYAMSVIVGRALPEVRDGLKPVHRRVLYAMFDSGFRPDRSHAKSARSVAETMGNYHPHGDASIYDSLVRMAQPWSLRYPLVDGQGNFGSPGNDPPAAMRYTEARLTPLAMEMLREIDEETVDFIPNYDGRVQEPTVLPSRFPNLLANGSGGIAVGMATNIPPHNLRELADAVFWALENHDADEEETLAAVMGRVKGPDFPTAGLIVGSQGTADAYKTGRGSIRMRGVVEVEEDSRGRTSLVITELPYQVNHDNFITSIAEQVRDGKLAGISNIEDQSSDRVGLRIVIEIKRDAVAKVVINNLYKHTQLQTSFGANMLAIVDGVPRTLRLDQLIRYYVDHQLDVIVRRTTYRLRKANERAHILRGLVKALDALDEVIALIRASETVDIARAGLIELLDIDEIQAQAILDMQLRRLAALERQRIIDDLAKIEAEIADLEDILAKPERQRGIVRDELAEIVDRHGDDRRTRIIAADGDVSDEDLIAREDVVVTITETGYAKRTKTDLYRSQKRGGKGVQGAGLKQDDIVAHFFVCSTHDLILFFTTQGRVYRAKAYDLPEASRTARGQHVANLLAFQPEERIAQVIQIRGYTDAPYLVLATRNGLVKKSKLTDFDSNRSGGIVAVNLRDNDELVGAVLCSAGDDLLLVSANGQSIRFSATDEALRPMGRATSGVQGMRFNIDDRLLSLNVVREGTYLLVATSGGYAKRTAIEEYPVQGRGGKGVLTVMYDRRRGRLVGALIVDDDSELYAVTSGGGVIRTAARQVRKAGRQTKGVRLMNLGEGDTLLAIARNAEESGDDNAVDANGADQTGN
MtbTopo1, sequence (P9WG49 whole entry, looked up): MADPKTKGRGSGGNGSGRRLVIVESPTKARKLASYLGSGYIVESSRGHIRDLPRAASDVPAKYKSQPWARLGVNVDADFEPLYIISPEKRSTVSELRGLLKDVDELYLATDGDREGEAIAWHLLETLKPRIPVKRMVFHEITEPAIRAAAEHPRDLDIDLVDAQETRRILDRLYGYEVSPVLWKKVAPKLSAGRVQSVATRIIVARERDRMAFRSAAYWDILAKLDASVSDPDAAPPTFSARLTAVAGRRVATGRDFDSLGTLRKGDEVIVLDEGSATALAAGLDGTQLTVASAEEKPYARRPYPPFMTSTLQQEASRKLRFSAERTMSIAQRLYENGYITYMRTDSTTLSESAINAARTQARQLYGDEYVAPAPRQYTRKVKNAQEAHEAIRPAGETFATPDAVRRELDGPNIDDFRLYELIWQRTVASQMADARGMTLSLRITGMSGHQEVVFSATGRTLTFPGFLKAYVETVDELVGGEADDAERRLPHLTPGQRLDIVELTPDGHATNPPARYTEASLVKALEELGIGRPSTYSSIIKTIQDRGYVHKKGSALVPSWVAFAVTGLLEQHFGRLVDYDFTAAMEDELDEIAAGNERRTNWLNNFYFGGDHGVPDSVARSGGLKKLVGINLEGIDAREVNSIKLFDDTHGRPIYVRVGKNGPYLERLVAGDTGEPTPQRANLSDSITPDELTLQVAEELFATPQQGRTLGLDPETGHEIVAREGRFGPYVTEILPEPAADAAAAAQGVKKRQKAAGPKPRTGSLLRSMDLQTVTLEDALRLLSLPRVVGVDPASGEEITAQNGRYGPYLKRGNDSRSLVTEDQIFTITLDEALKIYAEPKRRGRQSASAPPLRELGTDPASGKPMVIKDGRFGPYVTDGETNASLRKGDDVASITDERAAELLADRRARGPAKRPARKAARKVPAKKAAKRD

## C1=NCCCCN=Cc2ccc3[n]2[Au+][n]2c1ccc2-c1nc2ccccc2nc1-3.F[P-](F)(F)(F)(F)F [Compound 10]
Mtb-lux
  MIC Mtb: 0.12 µM
Mab 390S-lux
  MIC Mab: 5.4 µM and 5.44 µM
[1]
  IC50: 85.8 µM
Mtb CDC1551
  mode of action against Mtb: almost completely bacteriostatic
Mtb CDC1551; at 64-fold MIC
  decrease relative to vehicle control: 1 log
MtbTopo1
  inhibition of topoisomerase I (MtbTopo1 relaxation): able to inhibit topoisomerase I
[2]
  loss of the Au(III) ion: cannot be lost since it is very tightly bound
Tolerability of mice
  tolerability: tolerated
EcTopo1
  inhibition of topoisomerase I (EcTopo1 relaxation): able to inhibit topoisomerase I
E. coli gyrase
  activity against topoisomerase II (E. coli gyrase supercoiling): neither had significant activity
M. tuberculosis gyrase
  activity against topoisomerase II (M. tuberculosis gyrase supercoiling): neither had significant activity

## CC(=O)OC[C@H]1O[C@@H]([S-])[C@H](OC(C)=O)[C@@H](OC(C)=O)[C@@H]1OC(C)=O.CCP(CC)CC.[Au+] [auranofin]
Mtb
  activity against Mtb: bactericidal

## CC[C@H]1OC(=O)[C@H](C)[C@@H](O[C@H]2C[C@@](C)(OC)[C@@H](O)[C@H](C)O2)[C@H](C)[C@@H](O[C@@H]2O[C@H](C)C[C@H](N(C)C)[C@H]2O)[C@](C)(OC)C[C@@H](C)C(=O)[C@H](C)[C@@H](O)[C@]1(C)O [clarithromycin]
Mab
  bactericidal activity against Mab in vitro: poor bactericidal activity

## ClC1CN=Cc2ccc3[n]2[Au+][n]2c(ccc2-c2nc4ccccc4nc2-3)C=NC1.F[P-](F)(F)(F)(F)F (centres unmarked) [Compound 11]
Mtb-lux
  MIC Mtb: 4.06 µM
Mab 390S-lux
  MIC Mab: 91.72 µM
[1]
  IC50: 108 µM
Mtb CDC1551; 24 h
  decrease in CFU/mL, early time-point: > 1 log
Mtb CDC1551; 144 h, at 8, 4 and 2-fold MIC
  mode of action, latest time-point: bacteriostatic

## C1=NCCCN=Cc2ccc3[n]2[Au+][n]2c1ccc2-c1nc2ccccc2nc1-3.F[P-](F)(F)(F)(F)F [Compound 8]
Mtb-lux
  MIC Mtb: 2.72 µM
Mab 390S-lux
  MIC Mab: 849.41 µM
[1]
  IC50: 48.5 µM

## CCOC1CN=Cc2ccc[n]2[Au+][n]2cccc2C=NC1.F[P-](F)(F)(F)(F)F (centres unmarked) [Compound 15]
Mtb-lux
  MIC Mtb: 4.61 µM
Mab 390S-lux
  MIC Mab: 13.05 µM
[1]
  IC50: 48.9 µM
Mtb CDC1551
  mode of action against Mtb: rapid and potent bactericidal activity

## NCC[C@H](O)C(=O)N[C@@H]1C[C@H](N)[C@@H](O[C@H]2O[C@H](CN)[C@@H](O)[C@H](O)[C@H]2O)[C@H](O)[C@H]1O[C@H]1O[C@H](CO)[C@@H](O)[C@H](N)[C@H]1O [amikacin]
Mab
  bactericidal activity against Mab in vitro: poor bactericidal activity
